# Like-named read-outs stand apart in the source and are kept apart here.
# What was measured:
# HT29 cells = experiment: Inhibition of cell necrosis (CCK8 method), HT29 cells; type: cell-based, human; conditions: Homo sapiens, HT-29, 16 h, HT29, Human TNF-α/AT-406/Z-VAD-FMK, 16 hours, CCK8
# Summary of the method: (§1)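 HT29 (1.2×10^4/well) and L929 (2.0×10^4/well) cells were pretreated 30 min with compound, 9-point 4-fold series from 10 μM in duplicate. Necrosis was induced with human TNF-α 20 ng/mL, AT-406 […] and Z-VAD-FMK 20 μM for 16 h (HT29), or murine TNF-α 20 ng/mL and Z-VAD-FMK 25 μM for 4-8 h (L929). CCK8 viability; IC50 from dose-effect curve.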
# L929 cells = experiment: Inhibition of cell necrosis (CCK8 method), L929 cells; type: cell-based, mouse; conditions: Mus musculus, L929, L929, Murine TNF-α/Z-VAD-FMK, 4-8 hours, CCK8
# Summary of the method: as §1
# [1] = Rat PK&BBB (pharmacokinetics and brain penetration); type: in vivo, SD rats
# Procedure: (§2) In this assay, the pharmacokinetic characteristics and ability to penetrate the blood-brain barrier of the compounds of the present application were assayed after administration of some of the compounds of the present application to SD rats, CD-1 mice or beagle dogs by single oral administration and intravenous injection.
# (§3) 1. Intravenous (IV) injection group: an appropriate amount of the assay compound was weighed, and completely dissolved in an appropriate volume of vehicle. The mixture was stirred, vortexed and/or sonicated. Once a solution was obtained, the vehicle was gradually added to a final volume to reach the target concentration. The solution was vortexed, and sonicated to obtain a homogeneous solution. The solution was filtered through a […] PVDF membrane.
# (§4) 2. Oral (PO) group: an appropriate amount of the assay compound was weighed, and completely dissolved in an appropriate volume of vehicle. The mixture was stirred, vortexed and/or sonicated. Once a solution was obtained, the vehicle was gradually added to a final volume to reach the target concentration. The solution was vortexed, and sonicated to obtain a homogeneous solution.
# (§5) Meanwhile, the IV group was not fasted and the PO group was fasted overnight (>12 hrs) and given food 2 hrs after drug administration. All animals had free access to water. The dosing regimen and pharmacokinetic sampling regimen are given in Table 10 and Table 11 below, respectively.
# Rats were administered according to the above protocol, and blood and brain tissue samples were collected and processed at predetermined time points (collection and processing were performed according to conventional methods in the art).
# (§6) The brain was weighed and homogenized by adding 4 times of ultrapure water. Six times volume of acetonitrile was added respectively to the whole blood samples and brain homogenate (20 times volume of acetonitrile was added to the whole blood sample of mouse PK). The mixture was vortexed for 1 min and then centrifuged at 4° C., 4500 rpm for 15 min. According to the instrument response, the supernatant was diluted with diluent and the sample was analyzed by LC/MS.
# (§7) Pharmacokinetic parameters were calculated using WinNonlin software. The following pharmacokinetic parameters were calculated if appropriate plasma/whole blood drug concentration-time data were available: CL (clearance); Vd (apparent volume of distribution); T1/2 (elimination half-life time); Cmax (peak concentration); Tmax (time to peak); AUC (area under plasma drug concentration-time curve); MRT (mean retention time); F % (bioavailability).
# [2] = Beagle PK (pharmacokinetics); type: in vivo, beagle dogs; conditions: whole blood, Beagle dog
# Procedure: as §2, §3, §4, §5, §6, §7
# [3] = Sprague-Dawley, rat, whole blood, iv, 3 mg/kg, IV 3 mg/kg, read-out: Blood drug concentration
# [4] = Sprague-Dawley, rat, whole blood, po, 30 mg/kg, PO 30 mg/kg, read-out: Blood drug concentration
# [5] = IV 1 mg/kg, read-out: Blood drug concentration
# [6] = PO 3 mg/kg, read-out: Blood drug concentration
smiles,measurement,setting,value
CC(C)(O)COc1ccc(F)c(-c2ccnc(N3CCC(C(=O)N4N=CC[C@H]4c4cc(F)cc(F)c4)CC3)c2)c1 (racemic) [Example 42],IC50,HT29 cells,≤ 10 nM
same,IC50,L929 cells,≤ 10 nM
same,concentration at 24 hr,"[1]; SD, rat, whole blood, iv, 3 mg/kg, IV 3 mg/kg, 24 hr, read-out: Blood drug concentration",19.9 ± 2.4 ng/mL
same,AUC(0-inf),"[1]; SD, whole blood, IV 3 mg/kg",4140 ± 234 ng·h/mL
same,AUC(0-t),"[1]; SD, whole blood, IV 3 mg/kg",3990 ± 225 ng·h/mL
same,Vd,"[1]; SD, whole blood, IV 3 mg/kg",5.5 ± 0.38 L/kg
same,half-life,"[1]; SD, whole blood, IV 3 mg/kg",5.25 ± 0.14 h
same,clearance,"[1]; SD, whole blood, IV 3 mg/kg, read-out: Cl—obs",12.1 ± 0.7 mL/min/kg
same,AUC(0-inf),"[1]; SD, whole blood, PO 30 mg/kg",26500 ± 3060 ng·h/mL
same,AUC(0-t),"[1]; SD, whole blood, PO 30 mg/kg",24200 ± 2750 ng·h/mL
same,Cmax,"[1]; SD, whole blood, PO 30 mg/kg",1580 ± 205 ng/mL
same,Tmax,"[1]; SD, whole blood, PO 30 mg/kg",6 ± 1.73 h
same,half-life,"[1]; SD, whole blood, PO 30 mg/kg",6.33 ± 1.56 h
same,bioavailability,"[1]; SD, whole blood, PO 30 mg/kg vs IV 3 mg/kg",64 ± 7.4%
same,Kp at 2 h,"[1]; Sprague-Dawley, brain / whole blood, PO 30 mg/kg, 2 h after administration, read-out: Brain/blood ratio",0.915
same,concentration at 2 h,"[1]; Sprague-Dawley, rat, brain, po, 30 mg/kg, PO 30 mg/kg, 2 h after administration, read-out: Brain concentration",1970 ng/g
same,concentration at 0 h,[1]; [3],0 ng/mL
same,concentration at 0.083 h,"[1]; Sprague-Dawley, rat, whole blood, iv, 3 mg/kg, IV 3 mg/kg, 0.083 hr, read-out: Blood drug concentration",798 ± 302 ng/mL
same,concentration at 0.25 h,[1]; [3],565 ± 166 ng/mL
same,concentration at 0.5 h,[1]; [3],445 ± 70 ng/mL
same,concentration at 1 h,[1]; [3],368 ± 53 ng/mL
same,concentration at 2 h,"[1]; Sprague-Dawley, rat, whole blood, iv, 3 mg/kg, IV 3 mg/kg, 2 hr, read-out: Blood drug concentration",303 ± 39 ng/mL
same,concentration at 4 h,[1]; [3],269 ± 25 ng/mL
same,concentration at 7 h,[1]; [3],199 ± 23 ng/mL
same,concentration at 0 h,[1]; [4],0 ng/mL
same,concentration at 0.25 h,[1]; [4],266 ± 89 ng/mL
same,concentration at 0.5 h,[1]; [4],654 ± 74 ng/mL
same,concentration at 1 h,[1]; [4],1250 ± 67 ng/mL
same,concentration at 2 h,"[1]; Sprague-Dawley, rat, whole blood, po, 30 mg/kg, PO 30 mg/kg, 2 hr, read-out: Blood drug concentration",1300 ± 178 ng/mL
same,concentration at 4 h,[1]; [4],1380 ± 387 ng/mL
same,concentration at 7 h,[1]; [4],1550 ± 153 ng/mL
same,concentration at 24 h,"[1]; Sprague-Dawley, rat, whole blood, po, 30 mg/kg, PO 30 mg/kg, 24 hr, read-out: Blood drug concentration",237 ± 95 ng/mL
same,concentration at 2 h,"[1]; Sprague-Dawley, rat, whole blood, po, 30 mg/kg, PO 30 mg/kg, whole blood, 2 h after administration, read-out: Blood drug concentration",2150 ng/mL
same,AUC(0-inf),[2]; IV 1 mg/kg,3380 ± 342 ng·h/mL
same,AUC(0-t),[2]; IV 1 mg/kg,2920 ± 268 ng·h/mL
same,Vd,[2]; IV 1 mg/kg,3.7 ± 1.05 L/kg
same,half-life,[2]; IV 1 mg/kg,8.72 ± 3 h
same,concentration at 0 hr,[2]; [5],0 ng/mL
same,concentration at 0.083 hr,"[2]; IV 1 mg/kg, 0.083 hr, read-out: Blood drug concentration",535 ± 62 ng/mL
same,concentration at 0.25 hr,[2]; [5],451 ± 77 ng/mL
same,concentration at 0.5 h,[2]; [5],390 ± 13 ng/mL
same,concentration at 1 h,[2]; [5],253 ± 49 ng/mL
same,concentration at 2 h,[2]; [5],236 ± 69 ng/mL
same,concentration at 4 h,[2]; [5],176 ± 29 ng/mL
same,concentration at 7 h,[2]; [5],133 ± 14 ng/mL
same,concentration at 24 hr,"[2]; IV 1 mg/kg, 24 hr, read-out: Blood drug concentration",32.9 ± 13.5 ng/mL
same,clearance,"[2]; IV 1 mg/kg, read-out: Cl—obs",4.97 ± 0.51 mL/min/kg
same,AUC(0-inf),[2]; PO 3 mg/kg,18000 ± 939 ng·h/mL
same,AUC(0-t),[2]; PO 3 mg/kg,11200 ± 2940 ng·h/mL
same,Cmax,[2]; PO 3 mg/kg,1510 ± 396 ng/mL
same,Tmax,[2]; PO 3 mg/kg,1.17 ± 0.76 h
same,half-life,[2]; PO 3 mg/kg,18.1 ± 5 h
same,bioavailability,[2]; PO 3 mg/kg vs IV 1 mg/kg,127 ± 28%
same,concentration at 0 hr,[2]; [6],0 ng/mL
same,concentration at 0.25 hr,[2]; [6],645 ± 362 ng/mL
same,concentration at 0.5 h,[2]; [6],1320 ± 406 ng/mL
same,concentration at 1 h,[2]; [6],1170 ± 696 ng/mL
same,concentration at 2 h,[2]; [6],1320 ± 320 ng/mL
same,concentration at 4 h,[2]; [6],560 ± 231 ng/mL
same,concentration at 7 h,[2]; [6],406 ± 145 ng/mL
same,concentration at 24 h,"[2]; PO 3 mg/kg, 24 hr, read-out: Blood drug concentration",260 ± 19 ng/mL
